Values of other authors in patent US20130280348A1, “Carbon dioxide and saline nasal delivery methods and treatments” (Glynn Tech, Inc., priority 2012, published 2013).

Legend:
[1] = tested on: nasal allergen challenge (grass or ragweed allergen) in subjects with SAR
[2] = tested on: seasonal allergic rhinitis (SAR); settings: intranasal

Structure (SMILES): O=C=O [CO(2), carbon dioxide]
- histamine levels in ipsilateral nasal secretions ([1]; after pretreatment with CO(2), increased significantly with sham treatment): did not increase
- ipsilateral secretion weights ([1]; compared with no treatment): numerically reduced
- sneezes ([1]; compared with no treatment, 12 subjects with SAR, 20-second CO(2) exposure 30 minutes before challenge, p=0.05): significant reduction
- bilateral runny nose symptoms ([1]; compared with no treatment, p=0.01): significant reduction
- contralateral secretion weights (reflex secretory response to allergen, primary outcome) ([1]; compared with no treatment, p=0.04): significant reduction
- sensation reported by subjects during exposure ([1]; during 20-second exposure to CO(2)): transient burning sensation
- acute response to allergen challenge ([1]; treatment with nasal CO(2)): partial reduction
- reflex responses ([1]; treatment with nasal CO(2)): reduced
- symptoms of seasonal allergic rhinitis (SAR) [2]: reduce symptoms
